Columns and labels:
[1] = test system: splenic lymphocyte subsets of CT26-bearing Balb/c mice; test: Flow cytometry of spleen lymphocytes of CT26-bearing mice after treatment; type: in vivo; details: mouse, in vivo
Experimental: (§1) The mice’s tumor volumes were measured by calipers after they were randomly allocated to various treatment groups. Every day tumor volumes were measured along axes (a and b) that are orthogonal to one another, and they were estimated by the equation tumor volume = π/6 × a × b^2. After the tumor was established (approximately 7 days), each group was subcutaneously injected with PPL-C (6 or 11 mg/kg), control peptide (11 mg/kg), endotoxin-free PD-L1 antibody (200 μg), or control antibody, following specific treatment procedures outlined in the flow chart. The Kaplan-Meier technique was used to determine survival differences for each group, and the log-rank test using the survival R package version 2.38-3 was applied to get the overall p-value.
To differentiate lymphocytes, spleen monocytes were separated via isodensity centrifugation. For flow cytometry evaluation, cell-surface and intracellular staining was achieved through reagents from BD Biosciences or Biolegend, following previously described protocols. Re-suspending the 1× 10^6 cells in 100 μL of PBS before incubating them with the appropriate antibodies. Data were collected using a BD Biosciences FACSCalibur flow cytometer, Germany, and analyzed using FlowJo 7.6 software, USA. Based on scatter signals and 7-Amino-actinomycin D fluorescence, dead cells, and cell debris were removed from the study.

MC38 cells = test: Flow cytometry binding to MC38 cells; type: cell-based, mouse; details: relatively low PD-L1 expression
Experimental: Fluorescence-based ELISA and cell-based tests were used to examine the binding specificity of PPL-C to PD-L1. To perform the ELISA, fluorescent plates were coated with 100 μL human PD-L1 (hPD-L1), mouse PD-L1 (mPD-L1), and BSA in PBS (pH 7.4) overnight at 4°C, respectively. Blocked the plates with 1% BSA (in PBST) for an hour at room temperature and rinsed twice with PBST. Then added peptides (20 μmol/L FITC-labeled PPL-C/Control peptide) and incubated for 1.5 hours at room temperature. With excitation at 488 nm and emission at 515 nm, the Cytation 3 instrument (BioTek) was used to measure the relative fluorescence intensity. Both attached and detached cells were used in the cell-based flow cytometry analysis. […] After that, cells were treated for 40 minutes at 4°C on an inversion shaker with PD-L1 antibody from Biolegend and 4 μmol/L FITC-labeled peptides (PPL-C/Control peptide). Each tube was washed twice with PBS following incubation and flow cytometry was carried out using a FACSort device. FlowJo software was used to evaluate the data that was acquired.

CT26 tumor = type: in vivo, mouse
Experimental: The investigators conducting the animal studies were not blinded. […] The mice were then randomized into different treatment groups.
as §1

`CC(C)[C@H](NC(=O)[C@H](CO)NC(=O)[C@@H](NC(=O)[C@@H](N)CO)C(C)C)C(=O)N[C@@H](CO)C(=O)N[C@@H](Cc1c[nH]cn1)C(=O)N[C@@H](Cc1ccccc1)C(=O)N[C@@H](CCC(N)=O)C(=O)N[C@@H](CCCCN)C(=O)N[C@H](C(=O)N[C@@H](Cc1c[nH]c2ccccc12)C(=O)N[C@H](C(=O)N[C@H](C(=O)NCC(=O)NCC(=O)NCC(=O)N[C@@H](CO)C(=O)N[C@@H](CCCCN)C(N)=O)C(C)C)C(C)C)C(C)C` [PPL-C] was tested, and the “Percentage of NK cells in spleen (CD49b/Nkp46, upper right quadrant)” value [1] was 7.79%, the “Affinity to MC38 cells” value (MC38 cells) was “low affinity” and the “Increase in survival time of CT26 tumor-bearing mice” value (CT26 tumor; 11 mg/kg s.c. around the tumor, dosing-schedule study, saline as negative control) was “approximately 50%”. The “Increase in survival time compared to the control peptide” value (CT26 tumor; reduced dose, s.c. around the tumor every day or every other day) was “approximately 50%” and the “Survival time of CT26 tumor-bearing mice” value (CT26 tumor; reduced dose, s.c. around the tumor every day or every other day, n = 6, P<0.001) was 81 days.

From article PMC11091243, “PD-L1 targeted peptide demonstrates potent antitumor and immunomodulatory activity in cancer immunotherapy” (Frontiers in Immunology, 2024)
